By EC50 is commonly meant the concentration needed to bring the measured effect to its halfway point.

SMILES strings stand for the structures.

One compound from BindingDB's records for doi:10.7270/Q2S180X7 (Vanderbilt Screening Center For Gpcrs, Ion Channels and …, 2009) can be followed below.

The experiment deals with T1, Muscarinic acetylcholine receptor M5 (Homo sapiens, UniProt P08912).
T1 sequence (P08912 whole entry): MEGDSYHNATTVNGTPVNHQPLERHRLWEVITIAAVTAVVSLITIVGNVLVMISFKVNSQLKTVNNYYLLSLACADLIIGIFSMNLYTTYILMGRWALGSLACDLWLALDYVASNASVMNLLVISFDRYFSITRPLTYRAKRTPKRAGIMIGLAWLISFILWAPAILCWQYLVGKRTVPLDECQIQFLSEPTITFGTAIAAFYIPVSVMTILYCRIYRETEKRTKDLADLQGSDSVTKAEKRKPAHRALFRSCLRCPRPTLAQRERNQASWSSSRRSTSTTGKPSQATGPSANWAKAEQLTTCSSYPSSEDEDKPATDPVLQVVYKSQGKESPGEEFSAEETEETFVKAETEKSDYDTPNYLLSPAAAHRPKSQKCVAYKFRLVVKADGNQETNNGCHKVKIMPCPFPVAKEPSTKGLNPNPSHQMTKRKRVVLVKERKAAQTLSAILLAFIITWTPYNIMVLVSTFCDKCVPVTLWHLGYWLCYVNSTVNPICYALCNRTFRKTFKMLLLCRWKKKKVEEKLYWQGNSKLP
The experiment in a line: binding competition at muscarinic M5 – biochemical, [3H]N-methylscopolamine (AID 2192). To be noted: inactive by the depositor's call.

In the case of `COc1ccc(CN2C(=O)C(=O)c3cc(OC(F)(F)F)ccc32)cc1` [VU0238429], the EC50 is 1710 nM.
